Reference: patent US7723295B2, “Peptides and compounds that bind to a receptor” (Ortho-McNeil Pharmaceutical, Inc., priority 2003, dated 2010)

Legend:
human TPO receptor = target: T1, human TPO receptor (Homo sapiens, UniProt P40238); assay: relative luminescent units assay, murine cells expressing human TPO receptor and fos-promoter luciferase reporter; type: cell-based; conditions: FIG. 1; three batches of TPO Compound No. 1 vs one batch of prior art peptide compound
T1 construct: expressed in transfected cells
T1 sequence (P40238 26-635): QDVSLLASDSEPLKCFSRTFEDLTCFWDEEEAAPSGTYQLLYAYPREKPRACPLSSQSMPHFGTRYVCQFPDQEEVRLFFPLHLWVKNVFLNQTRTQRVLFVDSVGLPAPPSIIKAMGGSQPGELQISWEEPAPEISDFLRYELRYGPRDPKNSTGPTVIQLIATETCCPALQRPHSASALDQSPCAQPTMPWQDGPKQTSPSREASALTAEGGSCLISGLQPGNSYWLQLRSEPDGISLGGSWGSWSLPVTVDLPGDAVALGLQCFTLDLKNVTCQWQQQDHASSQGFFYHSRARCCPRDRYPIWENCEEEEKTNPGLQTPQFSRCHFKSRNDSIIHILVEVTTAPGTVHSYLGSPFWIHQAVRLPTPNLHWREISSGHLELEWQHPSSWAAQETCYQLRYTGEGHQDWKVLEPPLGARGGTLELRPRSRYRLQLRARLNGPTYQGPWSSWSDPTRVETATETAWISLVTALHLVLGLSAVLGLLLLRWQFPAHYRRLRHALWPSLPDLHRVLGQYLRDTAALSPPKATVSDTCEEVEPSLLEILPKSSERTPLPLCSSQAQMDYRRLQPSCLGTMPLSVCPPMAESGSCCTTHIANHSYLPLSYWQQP
Excerpt: The assay employs murine cells engineered to stably express the human TPO receptor and a luciferase reporter construct driven by the fos promoter.

platelet counts = assay: Phase I pharmacodynamics, elevation in platelet counts; type: in vivo, human; conditions: for n (>1.5×), subjects with platelet increase / n (>2×), subjects with platelet increase / n (>3×), subjects with platelet increase / n (>4×), subjects with platelet increase: N=6

“(H-IEGPTLRQ(2-Nal)LAAR(Sar))2K-NH2 [TPO Compound No. 1]” was tested, and the “activity (relative luminescent units), compared between compounds” value (human TPO receptor) was “similar”, the “Pltmax, first value (mean peak platelet count)” value (shortened to “Pltmax, first value”) (platelet counts; 0.375 μg/kg single i.v.) was 315 10^9/L and the “Pltmax, range in brackets” value (platelet counts; 0.375 μg/kg single i.v.) was “(214-482) 10^9/L”. The “Pltmax, second value after the slash (footnote not given)” value (platelet counts; 0.375 μg/kg single i.v.) was 309 10^9/L, the “Pltmax/Plt0, first value (mean)” value (platelet counts; 0.375 μg/kg single i.v.) was 1.42/1.42 and the “Pltmax/Plt0, range in brackets” value (platelet counts; 0.375 μg/kg single i.v.) was “(1.08-1.81)”. The “Pltmax/Plt0, second value after the slash (footnote not given)” value (shortened to “Pltmax/Plt0 … (footnote not given)”) (platelet counts; 0.375 μg/kg single i.v.) was 1.42/1.42, the “n (>1.5×), subjects with platelet increase” value (platelet counts; 0.375 μg/kg single i.v.) was 3 and the “n (>2×), subjects with platelet increase” value (platelet counts; 0.375 μg/kg single i.v.) was 0. For the same substance, the “n (>3×), subjects with platelet increase” value (platelet counts; 0.375 μg/kg single i.v.) was 0, the “n (>4×), subjects with platelet increase” value (platelet counts; 0.375 μg/kg single i.v.) was 0 and the “Pltmax, first value” value (platelet counts; 0.75 μg/kg single i.v.) was 347 10^9/L. For the same substance, the “Pltmax, range in brackets” value (platelet counts; 0.75 μg/kg single i.v.) was “(232-495) 10^9/L”, the “Pltmax, second value after the slash (footnote not given)” value (platelet counts; 0.75 μg/kg single i.v.) was 335 10^9/L and the “Pltmax/Plt0, first value (mean)” value (platelet counts; 0.75 μg/kg single i.v.) was 1.63/1.63. For the same substance, the “Pltmax/Plt0, range in brackets” value (platelet counts; 0.75 μg/kg single i.v.) was “(1.15-2.12)”, the “Pltmax/Plt0 … (footnote not given)” value (platelet counts; 0.75 μg/kg single i.v.) was 1.63/1.63 and the “n (>1.5×), subjects with platelet increase” value (platelet counts; 0.75 μg/kg single i.v.) was 3. The “n (>2×), subjects with platelet increase” value (platelet counts; 0.75 μg/kg single i.v.) was 1, the “n (>3×), subjects with platelet increase” value (platelet counts; 0.75 μg/kg single i.v.) was 0 and the “n (>4×), subjects with platelet increase” value (platelet counts; 0.75 μg/kg single i.v.) was 0. The “Pltmax, first value” value (platelet counts; 1.5 μg/kg single i.v.) was 430 10^9/L, the “Pltmax, range in brackets” value (platelet counts; 1.5 μg/kg single i.v.) was “(238-597) 10^9/L” and the “Pltmax, second value after the slash (footnote not given)” value (platelet counts; 1.5 μg/kg single i.v.) was 458 10^9/L. The “Pltmax/Plt0, first value (mean)” value (platelet counts; 1.5 μg/kg single i.v.) was 1.91, the “Pltmax/Plt0, range in brackets” value (platelet counts; 1.5 μg/kg single i.v.) was “(1.01-2.59)” and the “Pltmax/Plt0 … (footnote not given)” value (platelet counts; 1.5 μg/kg single i.v.) was 2.13. For the same substance, the “n (>1.5×), subjects with platelet increase” value (platelet counts; 1.5 μg/kg single i.v.) was 4, the “n (>2×), subjects with platelet increase” value (platelet counts; 1.5 μg/kg single i.v.) was 3 and the “n (>3×), subjects with platelet increase” value (platelet counts; 1.5 μg/kg single i.v.) was 0. The “n (>4×), subjects with platelet increase” value (platelet counts; 1.5 μg/kg single i.v.) was 0, the “Pltmax, first value” value (platelet counts; 2.25 μg/kg single i.v.) was 454 10^9/L and the “Pltmax, range in brackets” value (platelet counts; 2.25 μg/kg single i.v.) was “(254-576) 10^9/L”. For the same substance, the “Pltmax, second value after the slash (footnote not given)” value (platelet counts; 2.25 μg/kg single i.v.) was 500 10^9/L, the “Pltmax/Plt0, first value (mean)” value (platelet counts; 2.25 μg/kg single i.v.) was 2.15 and the “Pltmax/Plt0, range in brackets” value (platelet counts; 2.25 μg/kg single i.v.) was “(1.28-2.98)”. For the same substance, the “Pltmax/Plt0 … (footnote not given)” value (platelet counts; 2.25 μg/kg single i.v.) was 2.33, the “n (>1.5×), subjects with platelet increase” value (platelet counts; 2.25 μg/kg single i.v.) was 4 and the “n (>2×), subjects with platelet increase” value (platelet counts; 2.25 μg/kg single i.v.) was 4. For the same substance, the “n (>3×), subjects with platelet increase” value (platelet counts; 2.25 μg/kg single i.v.) was 0, the “n (>4×), subjects with platelet increase” value (platelet counts; 2.25 μg/kg single i.v.) was 0 and the “Pltmax, first value” value (platelet counts; 3.0 μg/kg single i.v.) was 685 10^9/L. For the same substance, the “Pltmax, range in brackets” value (platelet counts; 3.0 μg/kg single i.v.) was “(188-979) 10^9/L”, the “Pltmax, second value after the slash (footnote not given)” value (platelet counts; 3.0 μg/kg single i.v.) was 750 10^9/L and the “Pltmax/Plt0, first value (mean)” value (platelet counts; 3.0 μg/kg single i.v.) was 3.21. For the same substance, the “Pltmax/Plt0, range in brackets” value (platelet counts; 3.0 μg/kg single i.v.) was “(1.25-4.52)”, the “Pltmax/Plt0 … (footnote not given)” value (platelet counts; 3.0 μg/kg single i.v.) was 3.50 and the “n (>1.5×), subjects with platelet increase” value (platelet counts; 3.0 μg/kg single i.v.) was 5. For the same substance, the “n (>2×), subjects with platelet increase” value (platelet counts; 3.0 μg/kg single i.v.) was 5, the “n (>3×), subjects with platelet increase” value (platelet counts; 3.0 μg/kg single i.v.) was 4 and the “n (>4×), subjects with platelet increase” value (platelet counts; 3.0 μg/kg single i.v.) was 1.
